According to patent US20170367338A1, “COMPOSITIONS AND METHODS FOR IMPROVING AGRONOMIC CHARACTERISTICS OF PLANTS” (MONSANTO TECHNOLOGY LLC, priority 2014, published 2017):
Values after ≈ are worked out from the molar mass of the structure shown. Read-outs that look alike come from different tables or passages of the source.

Columns and labels:
Type in all cases: in vivo
Meloidogyne incognita = assay: M. incognita miniaturized greenhouse assay on cucumber seedlings; conditions: text reference to table 1D, 8 ppm and 1 ppm
Procedure: The test compound is dissolved in an acetone solution and added to water. A sprouted cucumber seedling is placed into a vial with dry sand and the water-chemical solution is added immediately. Twenty four hours later Meloidogyne incognita eggs are added to the vials and 10 to 12 days later the roots are evaluated for nematode galling.
Cucumber seeds are sprouted for 3 days in moist paper towels. Acceptable sprouts should be 3 to 4 cm long with several lateral roots just emerging. Stock solutions of chemistry are prepared in a mixture of acetone and Triton X100 (412 mg in 500 mL) to a final concentration of 5 mg/mL. The chemical stock solution is then added to 10 mL deionized water plus 0.015% Triton X100 and mixed thoroughly. This is enough to test each condition in triplicate. Ten mL dry sand is added to each vial. At this time the solubility of the chemistry is visually determined and recorded as either ppt (large precipitates) or cloudy (fine precipitates). Seedlings are planted by tilting the vial and laying the seedling in the correct orientation so that the cotyledons are just above the sand and then tilting back to cover the radicles with sand. 3.3 ml water/chemical mix is added to each vial and the vials placed in racks under fluorescent light banks. The vials are inoculated two days after planting by adding 500 vermiform M. incognita eggs to each vial in 50 uL of deionized or spring water. The vials are then kept under the fluorescent lamps at ambient room temperature and watered as needed with 1mL deionized water, usually twice during duration of test. Harvest of the cucumber plants is done 10 to 12 days after inoculation by washing sand off the roots. A root gall rating and visual phytotoxicity rating is assigned using the following scales: Gall rating scale (Gall: % root mass galled): 0=0-5%; 1=6-20%; 2=21-50%; and 3=51-100%. The average of the triplicate gall rating is then calculated: green=0.00-0.33 (no galls); yellow=0.67-1.33 (mild galling); orange=1.67-2.33 (moderate galling); red=2.67-3.00 (severe galling). Visual phytotoxicity scale is also assigned (Vis. tox; visual reduction in root mass compared to the control): rs1=mild stunting; rs2=moderate stunting; rs3=severe stunting.

[1] = system: Heterodera glycines (SCN); assay: Seed treatment test of soybean cyst nematode on soybean; conditions: Heterodera glycines, 672 h, read-out: percent cyst reduction relative to control blank treatment
Procedure: For a given concentration the chemical is dissolved in 500 ul of acetone and one gram of cucumber seed (RKN test) or soybean seed (SCN test) is added (e.g., 20 mg active ingredient in 500 ul acetone plus 1 gram of seed). The seed solutions are agitated until all seeds were thoroughly covered with the chemical solution. The acetone is then allowed to evaporate by air drying the seeds. The seeds are planted in 2-inch pots containing sandy soil and then the pots are inoculated with 1000 Meloidogyne incognita (RKN) or 1000 Heterodera glycines (SCN) eggs per pot three days after planting. Plants are rated for galling 14 days after egg inoculation for RKN or 28 days after egg inoculation for SCN.

root knot nematode = assay: Pre-plant incorporated (PPI) greenhouse test of root knot nematode on cucumber plants; conditions: 168 h, seven day pre-plant incorporated
Excerpt: The PPI test examines the effect of pre-incorporation of compounds in soil and longer aging to simulate in furrow methods of nematicide application in the field. The PPI test exposes compounds to a higher volume of soil and drying which can result in more severe soil binding. Compounds are also aged for longer periods which can lead to more extensive biotic and abiotic degradation further limiting activity.
The chemically treated soil (sandy soil mix) for all treatment days (e.g., 7 days, 14 days, 21 days) treatments is potted into their appropriate pots. On the same day the 7 day treatment pots are seeded. One week later eggs are applied and 14 days after egg application the test is harvested. The 14 day treatments are planted 7 days after the first planting. The 14 day planting and 7 day inoculation happen on the same day. One week later the 14 day treatments are inoculated with eggs. These are harvested 14 days after the inoculation. The 21 day treatments are planted 14 days after the first planting. The 14 day inoculation and 21 day planting are done on the same day. One week later the 21 day plants are inoculated with eggs. The 7 day treatment is harvested the same day as the 21 day inoculation. Fourteen days after inoculation the 21 day plants are harvested.
For each compound a stock is prepared using 4 mg material in 4 ml of acetone. The soil is mixed by placing 80 ml of field soil and 320 ml of sand in a plastic bag and mixing well. The formulation for treatment is done by adding 2.13 ml (8 kg/ha rate), 1.06 ml (4 kg/ha rate) or 0.53 ml (2 kg/ha rate) to a vial and raising it with 10 ml in 0.05% X100. Soil is then treated by adding the entire 10 ml to the 400 ml of mix in the bag. The treated soil is immediately mixed well in the sealed bag to distribute the compound evenly. Approximately 95 ml is used to fill each 2-inch square pot up to the top with some soil compression and flattening. For each compound and for the control treatments 4 pots are filled. All pots are watered until moist but with no run-out through the bottom.
The PPI test simulates 8, 4 and 2 kg/ha rates incorporated 15 cm deep in the field and is equivalent to the 2, 1 and 0.5 kg/ha drench application rates in the standard 2-inch pot cucumber greenhouse assay.

C. elegans = assay: Three day C. elegans well assay; conditions: for EC50: Caenorhabditis elegans
Procedure: Various compounds were tested for nematicidal activity against C. elegans using contact assays in wells. The assays were performed as described below. The test compounds were solubilized in DMSO at 10 mg/ml to create 100× stock solutions. A dilution series was created by diluting the stock solution with DMSO. For each well assay 4 ul of the appropriate dilution is added to a well of a test plate. A 400 ul aliquot of bacterial stock (in M9 buffer with ampicillin and nystatin) are added to each well of the test plate. Worms are added and the test plate placed on a rotary shaker and held at 20° C. Worms are examined and scored at 4 hrs, 24 hrs, 48 hrs and 72 hours. L1 worms and L4 worms were used in the assay. L1 worms are prepared by plating eggs on a plate without a bacterial feeding layer. The eggs hatch and arrest at the L1 stage. This L1 stage population is then used to create a stock for the experiments. To create an L4 stage stock a small number of worms are taken from an overgrown and starved plate of worms and seeded on a plate with a bacterial feeder layer. A 25 ul aliquot of worms is added to each well in the assay.

[2] = 24 h, L1 larvae, one day of exposure, read-out: EC50 L1 1D
[3] = 48 h, L1 larvae, two days of exposure, read-out: EC50 L1 2D
[4] = 72 h, L1 larvae, three days of exposure, read-out: EC50 L1 3D
[5] = 72 h, L4 larvae, three days, effects on the second generation larvae, read-out: EC50 L4 3D (F1)
[6] = 48 h, L4 larvae, two days of exposure, read-out: EC50 L4 2D
[7] = L4 larvae, two days of exposure
[8] = 24 h, L4 larvae, one day of exposure, read-out: EC50 L4 1D

| SMILES | EC50 (C. elegans; [2]) [µg/mL] | EC50 (C. elegans; [3]) [µg/mL] | EC50 (C. elegans; [4]) [µg/mL] | EC50 (C. elegans; [5]) [µg/mL] | EC50 L4 1D (C. elegans; L4 larvae, one day of exposure) | EC50 (C. elegans; [6]) [µg/mL] | further results |
| --- | --- | --- | --- | --- | --- | --- | --- |
| c1ccc(-c2cc(-c3ccco3)n[nH]2)cc1 [3-(furan-2-yl)-5-phenyl-1H-pyrazole] | – | – | – | – | – | – | nematicidal activity (Meloidogyne incognita): at 8 ppm but not 1 ppm |
| CS/C(C)=N\OC(=O)N(C)SN(C)C(=O)O/N=C(\C)SC [Thiodicarb, reference compound] | – | – | – | – | – | – | pest or weed control at 0.375 mg/g [1]: 6%; pest or weed control at 1.5 mg/g [1]: -23% |
| FC(F)(F)c1ccc(-c2noc(-c3cccs3)n2)cc1 [compound 5213] | – | – | – | – | – | – | pest or weed control at 4000 g/ha (root knot nematode; 4 kg/ha, read-out: percent control (galling reduction), 4 kg/ha rate): 85%; pest or weed control at 8000 g/ha (root knot nematode; 8 ka/ha, read-out: percent control (galling reduction), 8 ka/ha rate): 98% |
| Clc1cc(-c2noc(-c3cccs3)n2)ccc1Br [compound 5820] | 0.4 (≈ 1.17 µM) | 0.4 (≈ 1.17 µM) | 0.4 (≈ 1.17 µM) | 6.3 (≈ 18.4 µM) | no | – | – |
| Clc1cc(-c2noc(-c3ccco3)n2)ccc1Br [compound 5821] | 0.4 (≈ 1.23 µM) | 0.4 (≈ 1.23 µM) | 0.4 (≈ 1.23 µM) | 0.4 (≈ 1.23 µM) | no | – | – |
| Cc1cc(Cl)ccc1-c1noc(-c2cccs2)n1 [compound 5822] | 1.6 (≈ 5.78 µM) | 0.4 (≈ 1.45 µM) | 0.4 (≈ 1.45 µM) | 1.6 (≈ 5.78 µM) | no | 1.6 (≈ 5.78 µM) | – |
| Cc1cc(Br)ccc1-c1noc(-c2cccs2)n1 [compound 5824] | 1.6 (≈ 4.98 µM) | 0.4 (≈ 1.25 µM) | 0.4 (≈ 1.25 µM) | 1.6 (≈ 4.98 µM) | no | – | EC50 L4 2D (C. elegans; [7]): no |
| Clc1ccccc1-c1cnc(-c2cccs2)o1 [compound 5826] | 6.3 (≈ 24.1 µM) | 1.6 (≈ 6.11 µM) | 1.6 (≈ 6.11 µM) | 6.3 (≈ 24.1 µM) | – | 6.3 (≈ 24.1 µM) | EC50 (C. elegans; [8]): 6.3 µg/mL (≈ 24.1 µM) |
| Brc1ccccc1-c1cnc(-c2cccs2)o1 [compound 5827] | 6.3 (≈ 20.6 µM) | 1.6 (≈ 5.23 µM) | 1.6 (≈ 5.23 µM) | 6.3 (≈ 20.6 µM) | – | 6.3 (≈ 20.6 µM) | EC50 (C. elegans; [8]): 25 µg/mL (≈ 81.7 µM) |
| Clc1ccccc1-c1cnc(-c2ccco2)o1 [compound 5828] | 1.6 (≈ 6.51 µM) | 1.6 (≈ 6.51 µM) | 1.6 (≈ 6.51 µM) | – | no | – | EC50 L4 3D (C. elegans; L4 larvae, three days of exposure): no; EC50 L4 2D (C. elegans; [7]): no |
| Cc1cc(F)ccc1-c1noc(-c2cccs2)n1 [compound 5845] | – | 1.6 (≈ 6.15 µM) | 0.4 (≈ 1.54 µM) | 25 (≈ 96 µM) | no | 25 (≈ 96 µM) | EC50 L1 1D (C. elegans; L1 larvae, one day of exposure): no |
